Where two headings read alike, the source gives them in different places.
Tests used:
Bacterial Mixture = assay: Preservative Efficacy Test in Lamellar Prolipid formulation: Bacterial Mixture; assay type: cell-based
Excerpt: (§1) The detailed composition of these end-user products comprising DHA solubilized Propyelene Carbonate is described below in detail.

Mold Mixture = assay: Preservative Efficacy Test in Lamellar Prolipid formulation: Mold Mixture; assay type: cell-based
Excerpt: as §1

S. aureus = assay: Preservative Efficacy Test in Lamellar Prolipid formulation: S. aureus; assay type: cell-based
Excerpt: as §1

[1] = Yellowing of DHA in aprotic and protic solvents; assay type: physicochemical
Excerpt: The various solvents selected are disclosed in Table 8.
The yellowing of DHA increased drastically when aprotic aromatic compounds were present along with DHA due to radical coupling between DHA and such solvents comprising aromatic compounds.
The decomposition of DHA was low at room temperature (RT) and at high temperature, wherein, the small amount of DHA decompose to form a radical and couple by themselves to form traces high of epsilon chromophoric products and if aromatic aprotic solvents are present along with DHA in solution they couple to form a longer chromophore with high intensity yellow color in water.

[2] = Solubility of DHA in aprotic and protic solvents
Excerpt: In order to choose the suitable solvent for preparing non-yellowing DHA composition, the different possible protic, aprotic solvents were selected and evaluated individually and also as their suitable mixture.
In case of aprotic solvents, it was selected based on its compatibility with other ingredients present in the end-user products. Further, the regulatory requirement was also considered as an important element in choosing preferred aprotic solvent for preparing non-yellowing/reduced-yellowing DHA composition of the present application. The high content of DHA can be introduced in the solvent by dispersing or dissolving the DHA in their corresponding aprotic solvents. […] The various solvents selected are disclosed in Table 8.
Further, the applicants have evaluated various protic solvents to understand their ability to render non-yellowing/reduced-yellowing DHA composition for employing in various end-user products that are aqueous in nature.

[3] = system: A. brasilensts (ATCC 16404); assay: Synergism study (MIC, synergy index) of DHA with aprotic solvents: A. brasilensts; assay type: cell-based
Description: (§2) Tryptic Soy Broth (TSB) media was used for bacterial evaluations and Yeast Malt Broth (YMB) for fungal evaluations. The compounds DHA or the aprotic solvents were added to the media and serially diluted. After serially diluting the media, 100 μl of a suspension of the testing bacteria or fungi were added to a final concentration of approximately 106 −5 CFU/ml. The inoculated media was then incubated at 32° C. for 2-5 days for bacteria or at 28° C. for 3-7 days for fungi.
(§3) The lowest concentration of each compound or mixtures to inhibit visible growth was taken as the minimum inhibitory concentration (MIC). The MIC's were taken as end points of activity. End points for the mixtures of compound A (DHA) and compound B (aprotic solvent) were then compare with the end points for the pure active ingredient alone.
(§4) Synergism was determined by a commonly used and accepted method described by Kull A. C.; Eisman, P. C.; Sylwestrowicz, H. D. and Mayer, R. L. 1961. […]

E. coli (ATCC 8739) = assay: Synergism study (MIC, synergy index) of DHA with aprotic solvents: E. coli; assay type: cell-based
Description: as §2, §3, §4

S. aureus (ATCC 6538) = assay: Synergism study (MIC, synergy index) of DHA with aprotic solvents: S. aureus; assay type: cell-based
Description: as §2, §3, §4

[4] = DHA in the named protic polar solvent, RT
[5] = DHA in the named protic polar solvent (Table 9)
[6] = DHA in the named aprotic solvent, RT, 1 month

For `CCCCCCC(O)CO` (stereo not shown) [0.5% octanediol], the “Preservative Efficacy Test count, Bacterial Mixture, Days 2” value (Bacterial Mixture; day 2) was less than 10, the “Preservative Efficacy Test count, Bacterial Mixture, Days 7” value (Bacterial Mixture; day 7) was less than 10 and the “Preservative Efficacy Test count, Bacterial Mixture, Days 14” value (Bacterial Mixture; day 14) was less than 10. For the same compound, the “Preservative Efficacy Test count, Bacterial Mixture, Days 21” value (Bacterial Mixture; day 21) was less than 10, the “Preservative Efficacy Test count, Bacterial Mixture, Days 28” value (Bacterial Mixture; day 28) was less than 10 and the “Preservative Efficacy Test count, Mold Mixture, Days 2” value (Mold Mixture; day 2) was 2.10E+04. For the same compound, the “Preservative Efficacy Test count, Mold Mixture, Days 7” value (Mold Mixture; day 7) was 1.80E+04, the “Preservative Efficacy Test count, Mold Mixture, Days 14” value (Mold Mixture; day 14) was 4.40E+03 and the “Preservative Efficacy Test count, Mold Mixture, Days 21” value (Mold Mixture; day 21) was 4.30E+03. For the same compound, the “Preservative Efficacy Test count, Mold Mixture, Days 28” value (Mold Mixture; day 28) was 5.00E+04, the “Preservative Efficacy Test count, S. aureus, Days 2” value (S. aureus; day 2) was 4.00E+01 and the “Preservative Efficacy Test count, S. aureus, Days 7” value (S. aureus; day 7) was less than 10. For the same compound, the “Preservative Efficacy Test count, S. aureus, Days 14” value (S. aureus; day 14) was less than 10, the “Preservative Efficacy Test count, S. aureus, Days 21” value (S. aureus; day 21) was less than 10 and the “Preservative Efficacy Test count, S. aureus, Days 28” value (S. aureus; day 28) was less than 10.
For `CCCCC(O)CO` (stereo not shown) [1,2hexanediol], the “Yellowing at RT For 1 month” value [1, 4] was “Yellow in 9 days”.
For `CCCCCCC(O)CO` (stereo not shown) [Capryl glycol], the “% of DHA soluble” value [2, 5] was 2.5% and the “Yellowing at RT For 1 month” value [1, 4] was “Yellow in 30 days”.
For `C1CCCCC1` [Cyclohexane], the “% of DHA soluble” value [2] was 3-5%, the “Yellowing At 50° C.” value ([1]; DHA in the named aprotic solvent, 50° C., figures in brackets = Gardner color) was “Slight yellowing (2-3)” and the “Yellowing at RT For 1 month” value [1, 6] was “No yellowing”.
In the case of `CO[C@H]1CO[C@H]2[C@@H]1OC[C@H]2OC` [Dimethyl isosorbide], the “% of DHA soluble” value ([2]; DHA in the named aprotic solvent (Table 8)) is reported as 8-10%, the “Solvent (B): MIC of solvent acting alone (QB)” value (“Solvent (B): MIC” for short) [3] is reported as 3125 ppm and the “Solvent (B): MIC” value (E. coli (ATCC 8739)) is reported as 12500 ppm. The “Solvent (B): MIC” value (S. aureus (ATCC 6538)) was 12500 ppm.
In the case of `COC(=O)C(C)O` (stereo not shown) [Methyl lactate], the “Yellowing at RT For 1 month” value [1, 6] is reported as “No yellow”.
In the case of `CC1COC(=O)O1` (stereo not shown) [Propylene carbonate, propylene carbonate], the MIC ([3]; read-out: Solvent (B): MIC of solvent acting alone (QB)) is reported as 6250 µg/mL, the MIC (E. coli (ATCC 8739); Escherichia coli, ATCC8739, read-out: Solvent (B): MIC of solvent acting alone (QB)) is reported as 6250 µg/mL and the “Yellowing at RT For 1 month” value [1, 6] is reported as “No yellowing”. The MIC (S. aureus (ATCC 6538); Staphylococcus aureus, ATCC6538, read-out: Solvent (B): MIC of solvent acting alone (QB)) was 12500 µg/mL.
With Phenethyl ethanol the “% of DHA soluble” value [2, 5] was 8% and the “Yellowing at RT For 1 month” value [1] was “Yellow on day one”.
For Phenethylpropanol, the “% of DHA soluble” value [2] was 8%, the Comments ([2]; pH 8) was “Crystallize” and the “Yellowing at RT For 1 month” value [1, 4] was “yellow on day one”.
In the case of Water, the “Yellowing at RT For 1 month” value ([1]; DHA in Water, pH 4) is reported as “No yellowing” and the “Yellowing at RT For 1 month” value ([1]; DHA in Water, pH 8) is reported as “Slight yellowing”.
